Here are results for seven compounds from patent publication US12258337B2, “Bicyclic CX3CR1 receptor agonists” (Board of Regents, The University of Texas System, priority 2019, dated 2025).

What all share (assay type): cell-based
The target of assay [1] is T1, hCX3CR1 (Homo sapiens, UniProt P49238).
T1 sequence (P49238 1-355): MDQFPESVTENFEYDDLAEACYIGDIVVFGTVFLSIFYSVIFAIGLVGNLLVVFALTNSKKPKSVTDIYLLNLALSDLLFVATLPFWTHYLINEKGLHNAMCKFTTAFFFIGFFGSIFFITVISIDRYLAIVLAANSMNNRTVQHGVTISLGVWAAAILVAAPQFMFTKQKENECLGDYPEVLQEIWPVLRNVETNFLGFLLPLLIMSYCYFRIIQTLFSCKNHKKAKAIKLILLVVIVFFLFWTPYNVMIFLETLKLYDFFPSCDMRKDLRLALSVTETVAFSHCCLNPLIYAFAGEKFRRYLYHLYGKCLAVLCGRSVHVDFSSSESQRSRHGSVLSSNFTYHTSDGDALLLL
In words: ChAMPion assay (CHO ChAMPion/CX3CR1 K1.6, cAMP/CNG channel, photoprotein luminescence). On the set-up: expressed in transfected cells; stably expresses a Ca2+ sensitive photo-protein. The settings on record: ChAMPion assay, CHO ChAMPion/CX3CR1 K1.6, Forskolin 3 μM; read-out: hCX3CR1 agonism EC50. The protocol: Buffers and reagents. PBS (D-PBS without calcium and magnesium; EuroClone); Trypsin (Trypsin 0.05%, EDTA 0.02% in PBS; EuroClone); DMSO (Sigma); Tyrode buffer Ca^2+ free: in-house solution (130 mM NaCl, 5 mM KCl, 1 mM MgCl^2, 5 mM NaHCO3, 20 mM HEPES (pH 7.4); sterile filtered and autoclaved); Tyrode buffer 10 mM Ca^2+: in-house solution (130 mM NaCl, 5 mM KCl, 10 mM CaCl2), 1 mM MgCl2, 5 mM NaHCO3, 20 mM HEPES, in water at pH 7.4, sterile filtered); Coelenterazine, native (Biosynth); stock 10 mM; Agonist: Recombinant Human Fractalkine (CX3CL1) (PeproTech); stock: 10 μM in standard Tyrode buffer/BSA 01%; stored at −20° C.
Cell line. The final clone for the hCX3CR1 assay was CHO ChAMPion/CX3CR1 K1.6. ChAMPion technology is based on the co-expression of a Ca^2+ sensitive photoprotein and of a cyclic nucleotide-gated (CNG) channel acting as a cAMP biosensor in a CHO-K1 cell line. CNG channels are non-selective ligand gated cation channels that can be opened by the direct interaction with either cAMP or cGMP, at the intracellular C-terminus site of the channel. Channel opening allows the flux of extracellular calcium into the cell cytoplasm and its transient elevation can be recorded by means of several different calcium indicators. In the chAMPion system, the CNG channel has been modified to display sensitivity to cAMP levels in the physiological range. In addition the calcium influx through the opened channel is immediately detected by the recording of the photoprotein-emitted flash type luminescence signal.
The chAMPion cell line system can monitor the activation of transfected Gαi-coupled receptors, which elicit changes in 3,‘5’-adenosine cyclic monophosphate (cAMP) levels, which in turn is responsible for CNG opening and consequent Ca^2+ influx.
Assay protocol. Experiments were performed in 384 MTP format. Cells were seeded at 10,000 cells/well in 25 μL/well complete growth medium without selection antibiotics in 384-well plates. Twenty-four hours later, cells were assayed for the response to various compounds using the Ca^2+ sensitive photo-protein stably expressed in the cells as readout.
The experiment was performed in a 384-well format according to the following procedure: • 24h after seeding, pre-incubate the cells at room temperature for 1 hour. • Then remove the culture medium. • Load cells with 20 μL/well of Ca^2+ free tyrode buffer+ceolenterazine 5 μM. • Incubate cell plates for 4 hours at RT. • 10 μl/well of 3× concentrated compounds in Ca^2+ free tyrode buffer+Forskolin 9 μM (final Forskolin concentration=3 μM) are applied to the cells (at 10 μl/s). Ten minutes later a second injection is performed: 10 μl/well of Ca^2+ free tyrode buffer+BSA 0.04% (final BSA concentration=0.01%). Twenty minutes later a third injection is performed: 20 μl/well of 10 mM Ca^2+ tyrode buffer (final Ca^2+ concentration was 3.3 mM) and luminescence is recorded for 90 seconds.
(§1) Data from FLIPRTETRA measurements are analyzed with the Genedata Screener© software.

The target in assay [2] is T1, hCX3CR1. As to the kind of experiment: Ga16 assay, CX3CR1 agonism, Ca2+ sensitive photo-protein readout (FLIPRTETRA). The settings on record: human CX3CR1 cell line. On the set-up: expressed in transfected cells; stably expresses a Ca2+ sensitive photo-protein. The protocol:
(§2) Compounds (as well as stereoisomer(s) thereof and/or salt(s) thereof) were tested for CX3CR1 agonism in a cell based assay with fluorescent readout in Agonist Mode in dose response in quadruplicate with intra-plate modality).
(§3) Buffers and reagents. PBS (D-PBS without calcium and magnesium; EuroClone); Trypsin (Trypsin 0.05%, EDTA 0.02% in PBS; EuroClone); DMSO (Sigma); Standard tyrode buffer: in-house solution (130 mM NaCl, 5 mM KCl, 2 mM CaCl2), 1 mM MgCl2, 5 mM NaHCO3, 20 mM HEPES in water at pH 7.4; sterile filtered); Coelenterazine, native (Biosynth); stock 10 mM; Agonist: Recombinant Human Fractalkine (CX3CL1) (PeproTech); stock: 10 μM in standard tyrode buffer+BSA 0.1%; stored at −20° C.
(§4) Cell line. Human (hCX3CR1), mouse (mCX3CR1), and rat (rCX3CR1) were used for the assay.
(§5) Assay protocol. Experiments ere performed in 384 MTP format. Cells were seeded at 7,500 cells/well in 25 μl/well complete growth medium without selection antibiotics in 384-well plates. Twenty-four hours later, cells ere assayed for the response to various compounds using the Ca^2+ sensitive photo-protein stably expressed in the cells as readout.
(§6) The experiment was performed in a 384-well format according to the following procedure: • 24h after seeding, pre-incubate the cells at room temperature for 1 hour. • Then remove the culture medium. • Load cells with 20 μL/well of standard tyrode buffer+10 μM ceolenterazine. • Incubate cell plates for 3 hours at RT. • Inject 10 μL/w of 3× concentrated test compounds and controls in assay buffer at the FLIPRTETRA and monitor the kinetic response over a period of 90 seconds.
(§7) Data from FLIPRTETRA measurements were analyzed with the Genedata Screener© software. The following examples are meant to illustrate, but in no way to limit, the claimed invention.

The target of another assay is T2, rCX3CR1 (Rattus norvegicus, UniProt P35411).
T2 construct: expressed in transfected cells; stably expresses a Ca2+ sensitive photo-protein
T2 sequence (P35411 1-354): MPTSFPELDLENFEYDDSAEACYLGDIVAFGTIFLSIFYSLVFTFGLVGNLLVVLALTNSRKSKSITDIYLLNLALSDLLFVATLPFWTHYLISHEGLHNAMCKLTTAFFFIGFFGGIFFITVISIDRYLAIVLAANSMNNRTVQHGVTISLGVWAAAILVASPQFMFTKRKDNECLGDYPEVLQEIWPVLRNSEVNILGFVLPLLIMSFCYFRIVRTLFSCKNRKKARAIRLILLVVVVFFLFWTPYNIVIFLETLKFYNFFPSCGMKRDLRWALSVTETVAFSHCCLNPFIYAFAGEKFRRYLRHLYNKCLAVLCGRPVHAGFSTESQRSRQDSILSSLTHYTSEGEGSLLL
The assay is described as above. The settings on record: rat CX3CR1 cell line. The protocol:
as §2, §3, §4, §5, §6, §7

The target in a further assay is T3, mCX3CR1 (Mus musculus, UniProt Q9Z0D9).
T3 construct: expressed in transfected cells; stably expresses a Ca2+ sensitive photo-protein
T3 sequence (Q9Z0D9 1-354): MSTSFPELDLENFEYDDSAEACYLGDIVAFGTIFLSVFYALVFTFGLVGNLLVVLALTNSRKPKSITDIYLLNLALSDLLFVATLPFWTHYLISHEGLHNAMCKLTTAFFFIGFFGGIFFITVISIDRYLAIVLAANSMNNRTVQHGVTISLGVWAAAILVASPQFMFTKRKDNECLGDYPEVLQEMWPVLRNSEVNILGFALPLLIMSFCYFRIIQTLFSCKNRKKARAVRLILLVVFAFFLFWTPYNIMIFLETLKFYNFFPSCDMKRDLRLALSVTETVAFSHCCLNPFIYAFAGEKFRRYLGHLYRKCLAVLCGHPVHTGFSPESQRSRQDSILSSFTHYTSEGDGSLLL
The assay is described as above. The following applies: mouse CX3CR1 cell line. The protocol:
as §2, §3, §4, §5, §6, §7

The target in assay [3] is T1, hCX3CR1. As to the kind of experiment: Suchi5 assay (HEK/NatClytin/CNG/Suchi5 transiently transfected hCX3CR1, Fluo-8 Ca2+ readout). On the set-up: expressed in transfected cells; stably expresses a Ca2+ sensitive photo-protein. The following applies: Suchi5 assay, HEK/NatClytin/CNG/Suchi5 transfected with hCX3CR1; read-out: hCX3CR1 agonism EC50. The protocol: Buffers and reagents. PBS (D-PBS without calcium and magnesium; EuroClone); Trypsin (Trypsin 0.05%, EDTA 0.02% in PBS; EuroClone); Opti-MEM medium (Thermo Fisher); DMSO (Sigma); Standard tyrode buffer: in-house solution (130 mM NaCl, 5 mM KCl, 2 mM CaCl2), 1 mM MgCl2, 5 mM NaHCO3, 20 mM HEPES in water at pH 7.4; sterile filtered); Screen Quest™ Fluo-8 No Wash Calcium Assay Kit (AAt Bioquest®); Lipofectamine® 2000 Reagent (Thermo Fisher); Agonist: Recombinant Human Fractalkine (CX3CL1) (PeproTech); stock: 10 μM in standard Tyrode buffer/BSA 01%; stored at −20° C.
Cell line. The final cell line for CX3CR1-Suchi5 assay is HEK/NatClytin/CNG/Suchi5 transiently transfected hCX3CR1 cDNA. In this cell line native Gαi signaling is switched to Gαq pathway thanks to the overexpression of a Gαiq chimeric G protein (called Suchi5) to direct Gαi activation towards Ca^2+ release for measurement.
Assay protocol. Experiments are performed in 384 MTP format. Transiently transfected cells are seeded at 20,000 cells/well in 25 μl/well Opti-MEM medium without selection antibiotics in 384-well plates. 4-5-hours later 25 μL/well of complete medium with 20% of FBS are added to the cells. Twenty-four hours later, cells are assayed for the response to various compounds using a fluorescent Ca^2+ sensitive dye (FLUO8-No Wash Dye) as readout.
The experiment is performed in a 384-well format according to the following procedure: • 24h after seeding, remove the culture medium. • Load cells with 20 μL/well of 0.5X FLUO-8 No Wash Dye diluted in assay buffer. • Incubate cell plates for 1 hour at RT. • Inject 10 μL/w of 3× concentrated test compounds and controls in assay buffer at the FLIPRTETRA and monitor the kinetic response over a period of 90 seconds.
as §1

Consider `CCN(CC)CC(C)(C)CNC(=O)c1cc2c(s1)CCCCCC2` [Example 16, N-[3-(diethylamino)-2,2-dimethylpropyl]-4,5,6,7,8,9-hexahydrocycloocta[b]thiophene-2-carboxamide], for which the EC50 at hCX3CR1 [1] came to 6.6 µM; on hCX3CR1 [2] it was 13.6 µM; on rCX3CR1 it was 19.7 µM; on mCX3CR1, 103 µM.
As to `CC1(O)CCCN(CC2(CNC(=O)c3cc4c(s3)CCCCCC4)CCC2)C1` (stereo not shown) [Example 59, N-[[1-[(3-hydroxy-3-methylpiperidin-1-yl)methyl]cyclobutyl]methyl]-4,5,6,7,8,9-hexahydrocycloocta[b]thiophene-2-carboxamide], the EC50 is 11.9 µM at hCX3CR1 [2], 9.2 µM at rCX3CR1, 9 µM at mCX3CR1 and 1 µM on hCX3CR1 [3].
For `CC1(C)CN(CC2(CNC(=O)c3cc4c(s3)CCCCCC4)CCC2)CCC1O` (stereo not shown) [Example 58, N-[[1-[(4-hydroxy-3,3-dimethylpiperidin-1-yl)methyl]cyclobutyl]methyl]-4,5,6,7,8,9-hexahydrocycloocta[b]thiophene-2-carboxamide], in that order: 21.9 µM, 16.8 µM, 19.1 µM and 5 µM.
Consider `CC1CCCC1(CNC(=O)c1cc2c(s1)CCCCCC2)CN(C)C` (single isomer, unassigned) [Example 60, N-[[1-[(dimethylamino)methyl]-2-methylcyclopentyl]methyl]-4,5,6,7,8,9-hexahydrocycloocta[b]thiophene-2-carboxamide], for which the EC50 on hCX3CR1 [2] amounted to 16.8 µM; on rCX3CR1 it was 18.9 µM; on mCX3CR1, 89.8 µM; on hCX3CR1 [3] it was 10.3 µM.
`O=C(NCC1(CN2CCC(O)C2)CCCC1)c1cc2c(s1)CCCCCC2` (single isomer, unassigned) [Example 64, N-[[1-[(3-hydroxypyrrolidin-1-yl)methyl]cyclopentyl]methyl]-4,5,6,7,8,9-hexahydrocycloocta[b]thiophene-2-carboxamide]: the EC50 on hCX3CR1 [2] stood at 10.2 µM; on rCX3CR1, 9.1 µM; at mCX3CR1, 13.7 µM; on hCX3CR1 [3] it was 8.7 µM.
Take `CC(C)(CNC(=O)c1cc2c(s1)CCCCCC2)CN1CCC(C)(O)CC1` [Example 67, N-[3-(4-hydroxy-4-methylpiperidin-1-yl)-2,2-dimethylpropyl]-4,5,6,7,8,9-hexahydrocycloocta[b]thiophene-2-carboxamide]: the EC50 on hCX3CR1 [2] was determined as 18.3 µM; on rCX3CR1, 78.9 µM; at mCX3CR1 it was 87.1 µM; at hCX3CR1 [3], 14.4 µM.
Consider `COC1(C)CCN(CC2(CNC(=O)c3cc4c(s3)CCCCCC4)CCC2)CC1` [Example 48, N-[[1-[(4-methoxy-4-methylpiperidin-1-yl)methyl]cyclobutyl]methyl]-4,5,6,7,8,9-hexahydrocycloocta[b]thiophene-2-carboxamide], for which the EC50 was 18.5 µM at hCX3CR1 [2], 13.7 µM on rCX3CR1, 18.2 µM at mCX3CR1 and 9.9 µM on hCX3CR1 [3].

Broadly, the EC50 is the concentration at which the effect is half-maximal.
